Source: patent US20250230155A1 (Vanderbilt University, priority 2021, published 2025)
Where two headings read alike, the source gives them in different places.

Target: T1, human mAChR M4 (Homo sapiens, UniProt P08173)
T1 construct: expressed in transfected cells
T1 sequence (P08173 1-479): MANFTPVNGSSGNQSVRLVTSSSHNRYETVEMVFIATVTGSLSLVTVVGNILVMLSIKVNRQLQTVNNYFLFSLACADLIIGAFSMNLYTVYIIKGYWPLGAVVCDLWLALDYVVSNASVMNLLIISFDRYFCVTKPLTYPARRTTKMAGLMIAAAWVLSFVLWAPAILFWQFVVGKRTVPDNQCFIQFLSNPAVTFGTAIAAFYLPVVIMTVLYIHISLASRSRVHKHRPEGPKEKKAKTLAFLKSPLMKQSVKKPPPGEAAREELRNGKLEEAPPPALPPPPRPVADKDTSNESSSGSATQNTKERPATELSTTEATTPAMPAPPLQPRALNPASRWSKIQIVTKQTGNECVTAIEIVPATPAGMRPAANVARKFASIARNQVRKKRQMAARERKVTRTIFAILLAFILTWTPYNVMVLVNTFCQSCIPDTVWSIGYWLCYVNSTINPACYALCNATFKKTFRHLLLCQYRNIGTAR
Assay: mAChR M4 cell-based functional assay (calcium mobilization, CHO-K1 hM4-Gqi5 cells)
Conditions: for Emax: CHO-K1; for EC50: increase in the EC20 acetylcholine response, CHO-K1 hM4-Gqi5 cells; for Emax at 30 µM: CHO-K1, % ACh maximum at 30 μM, human M4
Procedure, shortened: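 CHO-K1 cells stably expressing human M4 with chimeric Gqi5, loaded with Fluo-4 AM; compounds given as 11-point 1:3 curves and calcium flux read on FDSS at 1 Hz. Acetylcholine EC20 added at 144 s, EC80 at 230 s; agonist, PAM (EC20 potentiation) and antagonist (EC80 inhibition) EC50/Emax from four-parameter fits.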

[1] = positive allosteric modulator activity, read-out: Human M4 EC50

| EC50 [1] [µM] | Emax at 30 µM [%] | SMILES | Emax [%] | EC50 (Human M4 EC50, positive allosteric modulator activity) [µM] |
| --- | --- | --- | --- | --- |
| – | – | Cc1nc(Cl)nc(N2CCc3ncc(C4CC4)cc3C2)c1C [compound 254, 6-(2-chloro-5,6-dimethylpyrimidin-4-yl)-3-cyclopropyl-5,6,7,8-tetrahydro-1,6-naphthyridine] | 95 | 0.07 |
| 0.663 | 85 | Cc1nc(Cl)c(C)c(N2Cc3cc(C(F)(F)F)cnc3C(C)C2)n1 (stereo not drawn) [compound 256, 6-(6-chloro-2,5-dimethylpyrimidin-4-yl)-8-methyl-3-(trifluoromethyl)-5,6,7,8-tetrahydro-1,6-naphthyridine] | – | – |
| 8.31 | 39 | Cc1nc(Cl)c(C)c(N2Cc3cc(C(F)(F)F)cnc3C(C)(C)C2)n1 [compound 257, 6-(6-chloro-2,5-dimethylpyrimidin-4-yl)-8,8-dimethyl-3-(trifluoromethyl)-5,6,7,8-tetrahydro-1,6-naphthyridine] | – | – |
| 0.069 | 79 | Cc1nc(C(F)(F)F)nc(N2CCc3ncc(N4CCCn5nccc54)cc3C2)c1C [compound 258, 3-(6,7-dihydropyrazolo[1,5-a]pyrimidin-4(5H)-yl)-6-(5,6-dimethyl-2-(trifluoromethyl)pyrimidin-4-yl)-5,6,7,8-tetrahydro-1,6-naphthyridine] | – | – |
| 0.217 | 91 | FC(F)(F)c1cnc2c(c1)CN(c1nc(Cl)nc3c1CCC3)CC2 [compound 259, 6-(2-chloro-6,7-dihydro-5H-cyclopenta[d]pyrimidin-4-yl)-3-(trifluoromethyl)-5,6,7,8-tetrahydro-1,6-naphthyridine] | – | – |
| 0.154 | 87 | Cc1nc(C)c(C)c(N2CCc3ncc(Oc4ccccc4F)cc3C2)n1 [compound 260, 3-(2-fluorophenoxy)-6-(2,5,6-trimethylpyrimidin-4-yl)-5,6,7,8-tetrahydro-1,6-naphthyridine] | – | – |
| 0.358 | 72 | Cc1nc(C)c(C)c(N2CCc3ncc(Oc4cccc(F)c4F)cc3C2)n1 [compound 261, 3-(2,3-difluorophenoxy)-6-(2,5,6-trimethylpyrimidin-4-yl)-5,6,7,8-tetrahydro-1,6-naphthyridine] | – | – |
| 0.275 | 77 | Cc1nc(C)c(C)c(N2CCc3ncc(Oc4ccc(F)cc4F)cc3C2)n1 [compound 262, 3-(2,4-difluorophenoxy)-6-(2,5,6-trimethylpyrimidin-4-yl)-5,6,7,8-tetrahydro-1,6-naphthyridine] | – | – |
| 0.145 | 90 | Cc1nc(C)c(C)c(N2CCc3ncc(Oc4cc(F)ccc4F)cc3C2)n1 [compound 263, 3-(2,5-difluorophenoxy)-6-(2,5,6-trimethylpyrimidin-4-yl)-5,6,7,8-tetrahydro-1,6-naphthyridine] | – | – |
| 1.62 | 66 | FC(F)(F)c1cnc2c(c1)CN(c1nc(Cl)nc3c1CCCC3)CC2 [compound 264, 2-chloro-4-(3-(trifluoromethyl)-7,8-dihydro-1,6-naphthyridin-6(5H)-yl)-5,6,7,8-tetrahydroquinazoline] | – | – |
| 1.48 | – | FC(F)(F)c1cnc2c(c1)CN(c1nc(C3CC3)nc3c1CCC3)CC2 [compound 265, 6-(2-cyclopropyl-6,7-dihydro-5H-cyclopenta[d]pyrimidin-4-yl)-3-(trifluoromethyl)-5,6,7,8-tetrahydro-1,6-naphthyridine] | – | – |
| 4.57 | 38 | FC(F)(F)c1cnc2c(c1)CN(c1nc(C3CC3)nc3c1CCCC3)CC2 [compound 266, 2-cyclopropyl-4-(3-(trifluoromethyl)-7,8-dihydro-1,6-naphthyridin-6(5H)-yl)-5,6,7,8-tetrahydroquinazoline] | – | – |
| 1.03 | – | Cc1nc2c(c(N3CCc4ncc(C(F)(F)F)cc4C3)n1)CCC2 [compound 267, 6-(2-methyl-6,7-dihydro-5H-cyclopenta[d]pyrimidin-4-yl)-3-(trifluoromethyl)-5,6,7,8-tetrahydro-1,6-naphthyridine] | – | – |
| 4.19 | 68 | Cc1nc2c(c(N3CCc4ncc(C(F)(F)F)cc4C3)n1)CCCC2 [compound 268, 2-methyl-4-(3-(trifluoromethyl)-7,8-dihydro-1,6-naphthyridin-6(5H)-yl)-5,6,7,8-tetrahydroquinazoline] | – | – |
| 1.08 | 89 | Cc1ccc(Oc2cnc3c(c2)CN(c2nc(C)nc(C)c2C)CC3)c(F)c1 [compound 269, 3-(2-fluoro-4-methylphenoxy)-6-(2,5,6-trimethylpyrimidin-4-yl)-5,6,7,8-tetrahydro-1,6-naphthyridine] | – | – |
| 0.896 | 70 | Cc1nn(C)cc1-c1cnc2c(c1)CN(c1nc(N3CCOCC3)nc(C)c1C)CC2 [compound 270, 4-(4-(3-(1,3-dimethyl-1H-pyrazol-4-yl)-7,8-dihydro-1,6-naphthyridin-6(5H)-yl)-5,6-dimethylpyrimidin-2-yl)morpholine] | – | – |
| 0.214 | 78 | Cc1nn(C)cc1-c1cnc2c(c1)CN(c1nc(N3CCCC3)nc(C)c1C)CC2 [compound 271, 3-(1,3-dimethyl-1H-pyrazol-4-yl)-6-(5,6-dimethyl-2-(pyrrolidin-1-yl)pyrimidin-4-yl)-5,6,7,8-tetrahydro-1,6-naphthyridine] | – | – |
| 0.466 | 78 | Cc1nn(C)cc1-c1cnc2c(c1)CN(c1nc(NC3CC3)nc(C)c1C)CC2 [compound 272, N-cyclopropyl-4-(3-(1,3-dimethyl-1H-pyrazol-4-yl)-7,8-dihydro-1,6-naphthyridin-6(5H)-yl)-5,6-dimethylpyrimidin-2-amine] | – | – |
| 0.639 | 92 | Cc1nn(C)cc1-c1cnc2c(c1)CN(c1nc(NC3CCOC3)nc(C)c1C)CC2 (stereo not drawn) [compound 273, 4-(3-(1,3-dimethyl-1H-pyrazol-4-yl)-7,8-dihydro-1,6-naphthyridin-6(5H)-yl)-5,6-dimethyl-N-(tetrahydrofuran-3-yl)pyrimidin-2-amine] | – | – |
| 0.735 | 87 | Cc1nn(C)cc1-c1cnc2c(c1)CN(c1nc(NCC(C)(C)O)nc(C)c1C)CC2 [compound 274, 1-((4-(3-(1,3-dimethyl-1H-pyrazol-4-yl)-7,8-dihydro-1,6-naphthyridin-6(5H)-yl)-5,6-dimethylpyrimidin-2-yl)amino)-2-methylpropan-2-ol] | – | – |
| 0.981 | 86 | Cc1nn(C)cc1-c1cnc2c(c1)CN(c1nc(N3CCN(C)CC3)nc(C)c1C)CC2 [compound 275, 3-(1,3-dimethyl-1/-pyrazol-4-yl)-6-(5,6-dimethyl-2-(4-methylpiperazin-1-yl)pyrimidin-4-yl)-5,6,7,8-tetrahydro-1,6-naphthyridine] | – | – |
| 0.377 | 100 | Cc1nc(N2CCOCC2)nc(N2CCc3ncc(Nc4ccnn4C)cc3C2)c1C [compound 276, 6-(5,6-dimethyl-2-morpholinopyrimidin-4-yl)-N-(1-methyl-1H-pyrazol-5-yl)-5,6,7,8-tetrahydro-1,6-naphthyridin-3-amine] | – | – |
| 0.092 | 98 | Cc1nc(N2CCCC2)nc(N2CCc3ncc(Nc4ccnn4C)cc3C2)c1C [compound 277, 6-(5,6-dimethyl-2-(pyrrolidin-1-yl)pyrimidin-4-yl)-N-(1-methyl-1H-pyrazol-5-yl)-5,6,7,8-tetrahydro-1,6-naphthyridin-3-amine] | – | – |
| 0.178 | 95 | Cc1nc(NC2CC2)nc(N2CCc3ncc(Nc4ccnn4C)cc3C2)c1C [compound 278, 6-(2-(cyclopropylamino)-5,6-dimethylpyrimidin-4-yl)-N-(1-methyl-1H-pyrazol-5-yl)-5,6,7,8-tetrahydro-1,6-naphthyridin-3-amine] | – | – |
| 0.191 | 103 | Cc1nc(NC2CCOC2)nc(N2CCc3ncc(Nc4ccnn4C)cc3C2)c1C (stereo not drawn) [compound 279, 6-(5,6-dimethyl-2-((tetrahydrofuran-3-yl)amino)pyrimidin-4-yl)-N-(1-methyl-1H-pyrazol-5-yl)-5,6,7,8-tetrahydro-1,6-naphthyridin-3-amine] | – | – |
| 0.261 | 105 | Cc1nc(NCC(C)(C)O)nc(N2CCc3ncc(Nc4ccnn4C)cc3C2)c1C [compound 280, 1-((4,5-dimethyl-6-(3-((1-methyl-1H-pyrazol-5-yl)amino)-7,8-dihydro-1,6-naphthyridin-6(5/I)-yl)pyrimidin-2-yl)amino)-2-methylpropan-2-ol] | – | – |
| 3.29 | – | FC(F)(F)c1cnc2c(c1)CN(c1nc(Cl)nc3c1COC3)CC2 [compound 281, 2-chloro-4-(3-(trifluoromethyl)-7,8-dihydro-1,6-naphthyridin-6(5H)-yl)-5,7-dihydrofuro[3,4-d]pyrimidine] | – | – |
| 0.302 | – | Clc1nc2c(c(N3CCc4ncc(N5CCCn6nccc65)cc4C3)n1)COC2 [compound 282, 2-chloro-4-(3-(6,7-dihydropyrazolo[1,5-a]pyrimidin-4(5H)-yl)-7,8-dihydro-1,6-naphthyridin-6(5H)-yl)-5,7-dihydrofuro[3,4-d]pyrimidine] | – | – |

| SMILES | EC50 [1] [µM] | Emax at 30 µM [%] | Emax [%] | EC50 (Human M4 EC50, positive allosteric modulator activity) [µM] |
| --- | --- | --- | --- | --- |
| Cc1nc(Cl)c(C)c(N2Cc3cc(N)cnc3C(C)C2)n1 (stereo not drawn) [compound 255, 6-(6-chloro-2,5-dimethylpyrimidin-4-yl)-8-methyl-5,6,7,8-tetrahydro-1,6-naphthyridin-3-amine] | 2.1 | – | 88 | – |
